Source: EP0675126A1, “AMYLOID BETA-PROTEIN AGGLUTINATION AND/OR DEPOSITION INHIBITOR” (TEIJIN LIMITED, priority 1993, dated 1995)

Key:
[1] = target: T1, β1-35 peptide (Homo sapiens, UniProt P05067); experiment: β-amyloid protein aggregation inhibition by SDS-PAGE (Example 1); assay type: biochemical; details: drug agent 100 µg/ml; β1-35 peptide 2 mg/ml; room temperature; control and methanol solutions aggregated by the 7th day
T1 construct: made in house; host or cells: chemical solid-phase synthesis (Fmoc)
T1 sequence (P05067 672-706): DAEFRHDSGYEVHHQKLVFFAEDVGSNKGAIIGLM
Source text: When synthesized β-amyloid protein is subjected to SDS-PAGE, a 3-4 kDa band due to the peptide monomer is observed. However, when the protein begins to aggregate, this monomer band becomes thinner and a smear is observed at the high molecular end (Tomiyama, et al. 1994, J. Biol. Chem. 269, 10205-10208). The inhibitory activity of a drug agent against β-amyloid protein aggregation may be determined by measuring the aggregation period of β-amyloid in admixture with the drug agent based on the decrease in peptide monomer or appearance of smearing observed with SDS-PAGE.
Specifically, 10 µl of solution is taken from a reagent solution containing β-amyloid protein and a drug agent, an equivalent of a sample buffer for electrophoresis (20 mM Tris-HCl buffer, pH 6.8, 40% glycerin, 2% SDS, 2% β-mercaptoethanol) is added thereto, and the mixture is boiled at 100°C for 5 minutes. Next, 10 µl of the solution is placed on a 15-25% polyacrylamide gradient gel for electrophoresis in a Tris-glycine buffered system. After completion of the electrophoresis, the gel is stained with 0.2% Coomassie brilliant blue solution and the amount of peptide monomer (band thickness) and presence of smearing is observed. […]

[2] = oral administration to rats; cited from earlier work
[3] = administered orally to patients at about 300-600 mg/day; cited from earlier work

Structure (SMILES) | reduction in peptide monomer and appearance of smear (β1-35 peptide aggregation) [1] | LD₅₀ value [2] [mg/kg] | maximum blood concentration [3]
CO[C@H]1/C=C/O[C@@]2(C)Oc3c(C)c(O)c4c(O)c(cc(O)c4c3C2=O)NC(=O)/C(C)=C\C=C\[C@H](C)[C@H](O)[C@@H](C)[C@@H](O)[C@@H](C)[C@H](OC(C)=O)[C@@H]1C [rifamycin SV, Rifamycin SV] | no reduction in peptide monomer or smearing was observed up to the 14th day after dissolution |  | 
COC1C=COC2(C)Oc3c(C)c(O)c4c(O)c(cc(OCC(=O)O)c4c3C2=O)NC(=O)C(C)=CC=CC(C)C(O)C(C)C(O)C(C)C(OC(C)=O)C1C (stereo not shown) [rifamycin B, Rifamycin B] | no reduction in peptide monomer or smearing was observed up to the 14th day after dissolution |  | 
CO[C@H]1/C=C/O[C@@]2(C)Oc3c(C)c(O)c4c(O)c(c(/C=N/N5CCN(C)CC5)c(O)c4c3C2=O)NC(=O)/C(C)=C\C=C\[C@H](C)[C@H](O)[C@@H](C)[C@@H](O)[C@@H](C)[C@H](OC(C)=O)[C@@H]1C [rifampicin, Rifampicin] |  | 1720 | about 10 µg/ml
